From EPA's ToxValDB 9.5
Several values for one entry are separate records, joined by “and”; a condition that tells them apart may be missing. Equal entries are not always repeated.

Key:
[1] = test system: Rattus norvegicus; details: oral, gavage; for LD50: acute
[2] = test system: Rattus norvegicus; details: oral
[3] = test system: Rattus norvegicus
[4] = acute, duration: 4 hours, inhalation, M, Bone Marrow: Bone Marrow Histopathology + Spleen: Spleen Histopathology + Whole Body: Clinical Signs
[5] = reproduction developmental, duration: 9 days, inhalation, F, generation: P0, P0: Whole Body: Maternal Body Weight, Initial
[6] = reproduction developmental, duration: 9 days, inhalation, M/F, generation: F1, F1: Vertebra: Thoracic Centrum, Dipartite Ossification
[7] = reproduction developmental, duration: 14 days, oral, gavage, F, Crj:CD, generation: P0, P0: Uterus: >=6 Days of Diestrus + P0: Uterus: Estrous Cycle, Length + P0: Whole Body: Delivery Index + P0: Whole Body: Length of Gestation…
[8] = reproduction developmental, duration: 14 days, oral, gavage, M/F, Crj:CD, generation: F1, F1: Whole Body: Live Birth Index + F1: Whole Body: Live Pups Born + F1: Whole Body: Survival + F1: Whole Body: Viability Index
[9] = reproduction developmental, duration: 42 days, oral, gavage, M, Crj:CD, generation: P0, P0: Whole Body: Percent Mating
[10] = short-term, duration: 14 days, oral, gavage, F, Crj:CD, Liver: Cholesterol (CHOL), Total
[11] = subchronic, duration: 42 days, oral, gavage, M, Crj:CD, Adrenal: Adrenal Gland Weight, Absolute + Liver: Aspartate Aminotransferase (AST) + Spleen: Spleen Weight, Relative
[12] = subchronic, gavage, M, Sprague-Dawley, Clinical Observation: Salivation + Urinalysis: Tubular epithelial cell in sediment + Hematology: PT increase, APTT increase + Blood …
[13] = short-term, duration: 28 days, gavage, M, Sprague-Dawley, Clinical Observation: Salivation Dark green urinelocomotor activity decrease, Staining around nose and mouth + Functional Observational …
[14] = subchronic, gavage, M, Sprague-Dawley, Body Weight Changes: decrease, Gain decrease + Food Consumption: decrease + Hematology: RBC decrease, Hgb decrease, Hct decrease, Ret …

With `Cc1cc(S(=O)(=O)[O-])c(N=Nc2c([O-])c(C(=O)O)cc3ccccc23)cc1Cl.[Ca+2]` [C.I. Pigment Red 48, calcium salt (1:1)] the LD50 [1] was ≥ 5000 mg/kg and the NOEL ([2]; subchronic, gavage, M, Sprague-Dawley, Functional Observational Battery: Grip strength of hind limbs + Relative Organ Weight: Kidneys increase + Histopathology: Kidneys/ proximal …) was 200 mg/kg-day.
In the case of `Cc1ccc(Cl)cc1` [4-Chlorotoluene], the LD50 ([1]; Sprague-Dawley) is reported as 2350 mg/kg and 1900 mg/kg, the NOAEL ([2]; short-term, duration: 29 days, gavage, M/F, Wistar, Deaths + Clinical Observation: Rough fur Reduced condition Difficulties in breathing Distended abdomen Salivation + Body Weight Changes: …) is reported as 200 mg/kg-day and the NOAEL ([2]; subchronic, duration: 90 days, gavage, M/F, Sprague-Dawley, Deaths + Clinical Observation: Languid behavior Prostration Sensitivity to touch Tremor Epistaxis Wheezing Dyspnea + Body Weight Changes: …) is reported as 200 mg/kg-day.
With `OC(C(F)(F)F)C(F)(F)F` [2H-Perfluoro-2-propanol] the NOEL ([2]; subchronic, gavage, M, Sprague-Dawley, Clinical Observation: Prone position Lateral position Locomotor activity decrease + Functional Observational Battery: Prone position Lateral…) was 10 mg/kg-day, the LOAEL [3, 4] was 5500 mg/m3 and the NOAEL [3, 4] was 1370 mg/m3 and 1380 mg/m3. The LOAEL ([3]; acute, duration: 4 hours, inhalation, M, Brain: Brain Histopathology + Brain: Brain Pathology + Duodenum: Duodenum Histopathology + Heart: Heart Histopathology + Kidney: Kidney …) was 1370 mg/m3 and 1380 mg/m3, the NOAEL ([3]; developmental, duration: 9 days, inhalation, M/F, generation: F1, F1: Rib: Rib, Wavy + F1: Skin: Petechial Hemorrhages + F1: Skin: Subcutaneous Hematoma, Small + F1: Skull: Hyoid Body, Unossified + F1: …) was 1380 mg/m3 and 1370 mg/m3 and the NOAEL ([3]; reproduction developmental, duration: 9 days, inhalation, F, generation: P0, P0: Ovary: Corpora Lutea + P0: Uterus: Mean Implantations/Litter + P0: Uterus: Resorptions, Early + P0: Uterus: Resorptions, Late + P0: …) was 1380 mg/m3 and 1370 mg/m3. For the same compound, the LOAEL [3, 5] was 1380 mg/m3 and 1370 mg/m3, the NOAEL [3, 5] was 207 mg/m3 and 206 mg/m3 and the LOAEL ([3]; reproduction developmental, duration: 9 days, inhalation, M/F, generation: F1, F1: Kidney: Hydronephrosis + F1: Rib: 14th Rudimentary Rib) was 207 mg/m3 and 206 mg/m3. For the same compound, the LOAEL [3, 6] was 1380 mg/m3 and 1370 mg/m3, the NOAEL [3, 6] was 207 mg/m3 and 206 mg/m3 and the LOAEL ([3]; reproduction developmental, duration: 14 days, oral, gavage, F, Crj:CD, generation: F1, F1: Whole Body: Pup Weight Relative to Litter) was 300 mg/kg-day. For the same compound, the NOAEL ([3]; reproduction developmental, duration: 14 days, oral, gavage, F, Crj:CD, generation: P0, P0: Ovary: Corpora Lutea + P0: Uterus: Estrous Cycle, Irregular + P0: Uterus: Estrous Stages/ 21 Days + P0: Uterus: Implantation + P0: …) was 300 mg/kg-day, the LOAEL [3, 7] was 300 mg/kg-day and the NOAEL [3, 7] was 60 mg/kg-day. The LOAEL [3, 8] was 300 mg/kg-day, the NOAEL [3, 8] was 60 mg/kg-day and the NOAEL ([3]; reproduction developmental, duration: 14 days, oral, gavage, M/F, Crj:CD, generation: F1, F1: Whole Body: Male Pups per Pups Sexed + F1: Whole Body: Male Pups per Pups Sexed, Live Offspring) was 300 mg/kg-day. The LOAEL ([3]; reproduction developmental, duration: 14 days, oral, gavage, M, Crj:CD, generation: F1, F1: Whole Body: Pup Weight Relative to Litter) was 300 mg/kg-day, the NOAEL ([3]; reproduction developmental, duration: 42 days, oral, gavage, M, Crj:CD, generation: P0, P0: Whole Body: Days of Cohabitation + P0: Whole Body: Fertility Index) was 300 mg/kg-day and the LOAEL [3, 9] was 300 mg/kg-day. It also gave an NOAEL [3, 9] of 60 mg/kg-day, an NOAEL ([3]; short-term, duration: 14 days, oral, gavage, F, Crj:CD, Adrenal: Adrenal Gland Histopathology + Adrenal: Adrenal Gland Weight, Absolute + Adrenal: Adrenal Gland Weight, Relative + Basophils + …) of 300 mg/kg-day and an LOAEL ([3]; short-term, duration: 14 days, oral, gavage, F, Crj:CD, Calcium (CA) + Central Nervous System: CNS Depression + Liver: Hepatocellular Hypertrophy + Liver: Liver Weight, Relative, Recovery + …) of 300 mg/kg-day. For the same compound, the NOAEL ([3]; short-term, duration: 14 days, oral, gavage, F, Crj:CD, Calcium (CA) + Central Nervous System: CNS Depression + Liver: Hepatocellular Hypertrophy + Peripheral Nervous System: Aerial Righting …) was 60 mg/kg-day, the LOAEL [3, 10] was 60 mg/kg-day and the NOAEL [3, 10] was 10 mg/kg-day. For the same compound, the NOAEL ([3]; subchronic, duration: 42 days, oral, gavage, M, Crj:CD, Adrenal: Adrenal Gland Histopathology + Adrenal: Adrenal Gland Weight, Absolute, Recovery + Adrenal: Adrenal Gland Weight, Relative, …) was 300 mg/kg-day, the LOAEL [3, 11] was 60 mg/kg-day and the NOAEL [3, 11] was 10 mg/kg-day. For the same compound, the LOAEL ([3]; subchronic, duration: 42 days, oral, gavage, M, Crj:CD, Adrenal: Adrenal Gland Weight, Relative) was 10 mg/kg-day, the LOAEL ([3]; subchronic, duration: 42 days, oral, gavage, M, Crj:CD, Blood: Platelet Count (PLT) + Blood: Reticulocytes + Brain: Brain Weight, Absolute + Brain: Brain Weight, Absolute, Recovery + Central …) was 300 mg/kg-day and the NOAEL ([3]; subchronic, duration: 42 days, oral, gavage, M, Crj:CD, Blood: Platelet Count (PLT) + Blood: Reticulocytes + Brain: Brain Weight, Absolute + Central Nervous System: CNS Depression + Kidney: Urea …) was 60 mg/kg-day.
For `O=C1N(CO)C(O)C(O)N1CO` (stereo not given) [Dimethyloldihydroxyethyleneurea], the NOAEL ([1]; developmental, duration: 10 days, Wistar) was 640 mg/kg-day, the NOAEL ([1]; reproduction developmental, duration: 14 days, Fischer 344) was 4000 mg/kg-day and the NOAEL ([2]; subchronic, duration: 90 days, gavage, M/F, Fischer 344, Clinical Observation: Yellow discoloration, abdominal/anogenital region Soft stool Hypoactivity Grasping reflex decrease, Hypothermic …) was 3000 mg/kg-day.
For `CC(C)(c1ccc(O)cc1)c1ccc(C(C)(c2ccc(O)cc2)c2ccc(O)cc2)cc1`, the NOEL ([2]; short-term, duration: 28 days, gavage, M/F, Crj:CD, Hematology: Plt increase + Blood Chemistry: GPT increase, TG increase, Cho increase, TP decrease, LH decrease, , FSH decrease, Estradiol …) was 300 mg/kg-day.
`FC(F)(F)c1cccc(C(F)(F)F)c1` [Benzene, 1,3-bis(trifluoromethyl)-] was tested, and the NOAEL [2, 12] was 150 mg/kg-day and the NOEL [2, 12] was < 40 mg/kg-day.
Compound `Nc1nc(N)c2nc(-c3ccccc3)c(N)nc2n1` [Triamterene] has an NOEL ([2]; subchronic, duration: 13 weeks, diet, M/F, Fischer 344, Deaths + Body Weight Changes: decrease + Food Consumption: decrease + Histopathology: Kidney-Tubule degeneration Kidney-Cast Kidney-Tubule …) of 14.4 mg/kg-day.
In the case of `Cl.Cl.Nc1ccc(O)c(N)c1` [2,4-Diaminophenol dihydrochloride], the NOAEL [2, 13] is reported as 50 mg/kg-day, the NOEL [2, 13] is reported as < 50 mg/kg-day and the NOEL ([2]; subchronic, duration: 13 weeks, gavage, M/F, Fischer 344, Deaths + Body Weight Changes: decrease>50 + Absolute Organ Weight: Liver increase, Thymus decrease + Relative Organ Weight: Right kidney …) is reported as < 12 mg/kg-day.
`CCOCCOCCOC` [Ethane, 1-ethoxy-2-(2-methoxyethoxy)-] was tested, and the NOAEL ([2]; subchronic, duration: 42 days, gavage, M, CD(SD), Clinical Observation: Decrease in locomotor activity Salivation (transient) + Food Consumption: decrease + Urinalysis: K decrease, Cl …) was 62.5 mg/kg-day.
Work on `O=C(O)C(F)(F)C(F)(F)C(F)(F)C(F)(F)C(F)(F)C(F)(F)C(F)(F)C(F)(F)C(F)(F)C(F)(F)C(F)(F)C(F)(F)C(F)(F)C(F)(F)C(F)(F)C(F)(F)C(F)(F)F` [Perfluorooctadecanoic acid] yielded an LOEL [2, 14] of 200 mg/kg-day and an NOEL [2, 14] of 40 mg/kg-day.
Work on `Nc1ccc2cc(S(=O)(=O)CCO)ccc2c1` [Ethanol, 2-[(6-amino-2-naphthalenyl)sulfonyl]-] yielded an NOEL ([2]; short-term, duration: 28 days, gavage, M/F, Body Weight Changes: Weight gain decrease + Urinalysis: pH decrease(slight) + Hematology: RBC decrease, RET increase, PT increase + Absolute…) of 15 mg/kg-day.
`CCC[CH2][Sn]([Cl])([Cl])[Cl]` [Butyltin trichloride] showed an NOAEL ([2]; subchronic, duration: 13 weeks, diet, M/F, Wistar, Urinalysis: pH increase + Hematology: WBC increase, Lymph increase + Blood Chemistry: ALP increase, ASAT increase, GGT increase, A/G …) of 144 mg/kg-day.
Compound `CC(C)CCCCCOC(=O)C[S][Sn]([CH3])([S]CC(=O)OCCCCCC(C)C)[S]CC(=O)OCCCCCC(C)C` [Methyltin tris(isooctyl mercaptoacetate)] has an NOAEL ([2]; subchronic, duration: 90 days, diet, M, Wistar, Blood Chemistry: BUN increase + Relative Organ Weight: Thymus increase, Kidney increase + Histopathology: Kidney: Dilatation, tubule, cystic…) of 48 mg/kg-day.
In the case of `CC(O)CCl` (stereo not given) [1-Chloro-2-propanol], the NOEL ([2]; chronic, duration: 14 weeks, water, M/F, Fischer 344, Body Weight Changes: decrease + Water Consumption: decrease + Urinalysis: Urine volume decrease, Specific gravity increase, Total protein …) is reported as < 7.36 mg/kg-day.
